Reference: US5972933A, “Method of treating microbial infections” (Ed. Geistlich Sohne AG Fur Chemische Industrie, priority 1998, dated 1999)
Values after ≈ are worked out from the molar mass of the structure shown. Like-named read-outs stand apart in the source and are kept apart here.

How the values were obtained:
Type in all cases: cell-based
[1] = tested on: Methicillin-Resistant Staphylococcus aureus (MRSA); assay: Taurolidine MIC by broth microdilution, methicillin-resistant S. aureus (EMRSA 15); conditions: compared to NCTC 6571 or previous studies with fully sensitive strains
Experimental: All test strains were clinical isolates recovered from patients attending Hammersmith Hospital, London. Strains of Staphylococcus aureus (epidemic methicillin-resistant strain 15 (EMRSA 15) and vancomycin-resistant Enterococcus faecalis were broadly unselected isolates from local culture collections. However, strain selection was conducted so as to ensure that isolates were not consecutive isolates from individual patients.
Taurolidine MICs were performed using a sample of authenticated anhydrous micronised taurolidine batch number E/40522/4 (Geistlich Pharma AG, Wolhusen, Switzerland).
An aqueous stock solution of taurolidine was prepared to contain 2 g/100 ml taurolidine in water. This preparation was solubilized and sterilized by heating to 121° C. (15 psi) for 15 minutes.
Using this stock solution, serial doubling dilution of taurolidine were prepared in Unipath (Oxoid) Nutrient Broth Number 2 using 50 μl volumes in sterile round bottom microdilution trays. To these dilutions was added an equal volume of drug-free broth containing a suspension of the test organism to give a final inoculumn density of approximately 10^3 cfu. Inocula were prepared from overnight drug-free broth cultures of each test organism in Unipath (Oxoid) Nutrient Broth Number 2.
Final test concentrations of taurolidine were as follows:
All tests were incubated at 37 C for 18 hours. […]

[2] = tested on: Enterococcus faecium; assay: Taurolidine in vitro susceptibility, E. faecium (Example 4)
Source text: (§1) The in vitro susceptibility to taurolidine of a panel of clinical isolates and reference strains of Enterococcus faecium (n=20,7 strains vancomycin resistant) and Enterococcus faecalis (n-53,5 strains vancomycin resistant) has been examined. […] In all cases, the Minimum Bacteriocidal Concentration (MBC) of taurolidine was within 2 dilutions of the corresponding value for MIC confirming a bactericidal mode of action. In vitro resistance to taurolidine was not observed.

[3] = tested on: Enterococcus faecalis; assay: Taurolidine in vitro susceptibility, E. faecalis (Example 4)
Source text: as §1

`O=S1(=O)CCN(CN2CCS(=O)(=O)NC2)CN1` [Taurolidine] was tested, and the “difference in level of susceptibility to taurolidine” value [1] was “no difference in level of susceptibility to taurolidine”, the MIC ([2]; E. faecium strains, read-out: MIC range) was 95 to 375 µg/mL (≈ 334 to 1320 µM) and the MBC ([2]; E. faecium, VAN R strains, read-out: MBC, Avg.) was 446 µg/mL (≈ 1570 µM). For the same compound, the MBC ([2]; E. faecium, VAN R strains, read-out: MBC, Max.) was 500 µg/mL (≈ 1760 µM), the MBC ([2]; E. faecium, VAN R strains, read-out: MBC, Mean) was 446 µg/mL (≈ 1570 µM) and the MBC ([2]; E. faecium, VAN R strains, read-out: MBC, Median) was 500 µg/mL (≈ 1760 µM). The MBC ([2]; E. faecium, VAN R strains, read-out: MBC, Min.) was 375 µg/mL (≈ 1320 µM), the MBC ([2]; E. faecium, VAN R strains, read-out: MBC, Mode) was 500 µg/mL (≈ 1760 µM) and the MIC ([2]; E. faecium, VAN R strains, read-out: MIC, Avg.) was 161 µg/mL (≈ 566 µM). The MIC ([2]; E. faecium, VAN R strains, read-out: MIC, Max.) was 250 µg/mL (≈ 879 µM), the MIC ([2]; E. faecium, VAN R strains, read-out: MIC, Mean) was 161 µg/mL (≈ 566 µM) and the MIC ([2]; E. faecium, VAN R strains, read-out: MIC, Median) was 95 µg/mL (≈ 334 µM). The MIC ([2]; E. faecium, VAN R strains, read-out: MIC, Min.) was 95 µg/mL (≈ 334 µM), the MIC ([2]; E. faecium, VAN R strains, read-out: MIC, Mode) was 95 µg/mL (≈ 334 µM) and the MBC ([2]; E. faecium, VAN S strains, read-out: MBC, Avg.) was 666 µg/mL (≈ 2340 µM). The MBC ([2]; E. faecium, VAN S strains, read-out: MBC, Max.) was 1000 µg/mL (≈ 3520 µM), the MBC ([2]; E. faecium, VAN S strains, read-out: MBC, Mean) was 666 µg/mL (≈ 2340 µM) and the MBC ([2]; E. faecium, VAN S strains, read-out: MBC, Median) was 750 µg/mL (≈ 2640 µM). It also gave an MBC ([2]; E. faecium, VAN S strains, read-out: MBC, Min.) of 500 µg/mL (≈ 1760 µM), an MBC ([2]; E. faecium, VAN S strains, read-out: MBC, Mode) of 750 µg/mL (≈ 2640 µM) and an MIC ([2]; E. faecium, VAN S strains, read-out: MIC, Avg.) of 323 µg/mL (≈ 1140 µM). For the same compound, the MIC ([2]; E. faecium, VAN S strains, read-out: MIC, Max.) was 375 µg/mL (≈ 1320 µM), the MIC ([2]; E. faecium, VAN S strains, read-out: MIC, Mean) was 323 µg/mL (≈ 1140 µM) and the MIC ([2]; E. faecium, VAN S strains, read-out: MIC, Median) was 375 µg/mL (≈ 1320 µM). For the same compound, the MIC ([2]; E. faecium, VAN S strains, read-out: MIC, Min.) was 125 µg/mL (≈ 440 µM), the MIC ([2]; E. faecium, VAN S strains, read-out: MIC, Mode) was 375 µg/mL (≈ 1320 µM) and the MBC ([2]; E. faecium, all strains, read-out: MBC, Avg.) was 581 µg/mL (≈ 2040 µM). The MBC ([2]; E. faecium, all strains, read-out: MBC, Max.) was 1000 µg/mL (≈ 3520 µM), the MBC ([2]; E. faecium, all strains, read-out: MBC, Mean) was 581 µg/mL (≈ 2040 µM) and the MBC ([2]; E. faecium, all strains, read-out: MBC, Median) was 500 µg/mL (≈ 1760 µM). It also gave an MBC ([2]; E. faecium, all strains, read-out: MBC, Min.) of 375 µg/mL (≈ 1320 µM), an MBC ([2]; E. faecium, all strains, read-out: MBC, Mode) of 500 µg/mL (≈ 1760 µM) and an MIC ([2]; E. faecium, all strains, read-out: MIC, Avg.) of 260 µg/mL (≈ 914 µM). The MIC ([2]; E. faecium, all strains, read-out: MIC, Max.) was 375 µg/mL (≈ 1320 µM), the MIC ([2]; E. faecium, all strains, read-out: MIC, Mean) was 260 µg/mL (≈ 914 µM) and the MIC ([2]; E. faecium, all strains, read-out: MIC, Median) was 250 µg/mL (≈ 879 µM). It also gave an MIC ([2]; E. faecium, all strains, read-out: MIC, Min.) of 95 µg/mL (≈ 334 µM), an MIC ([2]; E. faecium, all strains, read-out: MIC, Mode) of 375 µg/mL (≈ 1320 µM) and an MIC ([3]; E. faecalis strains, read-out: MIC range) of 125 to 500 µg/mL (≈ 440 to 1760 µM). It also gave an MBC ([3]; E. faecalis, VAN R strains, read-out: MBC, Avg.) of 500 µg/mL (≈ 1760 µM), an MBC ([3]; E. faecalis, VAN R strains, read-out: MBC, Max.) of 750 µg/mL (≈ 2640 µM) and an MBC ([3]; E. faecalis, VAN R strains, read-out: MBC, Mean) of 500 µg/mL (≈ 1760 µM). The MBC ([3]; E. faecalis, VAN R strains, read-out: MBC, Median) was 500 µg/mL (≈ 1760 µM), the MBC ([3]; E. faecalis, VAN R strains, read-out: MBC, Min.) was 500 µg/mL (≈ 1760 µM) and the MBC ([3]; E. faecalis, VAN R strains, read-out: MBC, Mode) was 500 µg/mL (≈ 1760 µM). For the same compound, the MIC ([3]; E. faecalis, VAN R strains, read-out: MIC, Avg.) was 213 µg/mL (≈ 749 µM), the MIC ([3]; E. faecalis, VAN R strains, read-out: MIC, Max.) was 375 µg/mL (≈ 1320 µM) and the MIC ([3]; E. faecalis, VAN R strains, read-out: MIC, Mean) was 213 µg/mL (≈ 749 µM). For the same compound, the MIC ([3]; E. faecalis, VAN R strains, read-out: MIC, Median) was 250 µg/mL (≈ 879 µM).
